Here are results for eleven molecules from article PMC3104272 (Journal of medicinal chemistry, 2011).

In series [1] the test system is P. falciparum chloroquine resistant strain Dd2. As to the kind of experiment: In vitro antiplasmodial activity, Dd2 strain. Particulars: Plasmodium falciparum, DD2, read-out: IC50, Dd2. It counts as cell-based.
The conditions of series [2]: NADPH and UDPGA relative to NADPH alone; putative P + 176 metabolite.
Series [3] deals with P. falciparum chloroquine sensitive strain D10. The series can be described thus: In vitro antiplasmodial activity, D10 strain. It counts as cell-based. Particulars: Plasmodium falciparum, D10, read-out: IC50, D10.
Series [4] has as its system P. falciparum chloroquine resistant strain W2. The series can be described thus: In vitro antiplasmodial activity, W2 strain. Particulars: Plasmodium falciparum, W2, read-out: IC50, W2. The class given is cell-based.
The next series can be described thus: Solubility estimates. Particulars: for Solubility pH 2.0: 0.01M HCl (approximately pH 2.0). The class given is physicochemical.
Series [5] has as its system Chinese Hamster Ovarian (mammalian) cell line. Particulars: previously reported finding; cited from earlier work.
The target of the next series is T1, Falcipain 2 (Plasmodium falciparum, UniProt Q8I6U4).
T1 sequence (Q8I6U4 244-484): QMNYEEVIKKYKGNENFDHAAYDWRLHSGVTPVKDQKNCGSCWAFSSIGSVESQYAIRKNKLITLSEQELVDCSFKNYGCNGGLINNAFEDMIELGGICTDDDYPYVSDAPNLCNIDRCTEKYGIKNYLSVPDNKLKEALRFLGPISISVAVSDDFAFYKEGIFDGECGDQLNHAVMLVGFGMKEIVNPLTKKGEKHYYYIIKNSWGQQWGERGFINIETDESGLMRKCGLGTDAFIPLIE
As to the kind of experiment: Falcipain 2 inhibition assay. The class given is biochemical. Particulars: averages of duplicate determinations.

A short description of series [6]: In vitro metabolic stability, human liver microsomes. The class given is in vitro ADME. Particulars: calculated hepatic extraction ratio.
Series [7] in a line: In vitro metabolic stability, mouse liver microsomes. Particulars: calculated hepatic extraction ratio. The class given is in vitro ADME.
Series [8] has as its system Chinese Hamster Ovarian (mammalian) cell line. As to the kind of experiment: Cytotoxicity against Chinese Hamster Ovarian cell line. It counts as cell-based. Particulars: highest concentration (100 µM) tested.

Each structure is given as a SMILES string. Converted amounts (≈) assume the structure as drawn. Read-outs that look alike come from different tables or passages of the source.

As a reminder, the IC50 is the point on the concentration scale where inhibition reaches its midpoint. As for `CCN(CC)CCCC(C)Nc1ccnc2cc(Cl)ccc12` (stereo not drawn) [Chloroquine], the IC50 came to 97 nM in series [1], 17 nM in series [3] and 69 nM in series [4]. Further, in series [2], the Primary glucuronidation entry is given as “no major increase in the rate of degradation”.

Regarding `COc1ccc(C(=O)/C=C/c2ccc(OCc3cn(-c4ccnc5cc(Cl)ccc45)nn3)c(OC)c2)c(OC)c1` [Compound 8b], the “Solubility pH 2.0” value in the series “Solubility estimates” (1% DMSO) is recorded as “no increase in solubility under acidic conditions”. Moreover, in series [2], the Primary glucuronidation result is recorded as “no major increase in the rate of degradation”. Moreover, the Cytotoxicity result in series [5] is on record as “No cytotoxicity was observed”. The “Falcipain 2 (IC50)” value at Falcipain 2 is given as “lower micromolar IC50 values”.

The term solubility denotes the concentration that dissolves in the medium under given conditions. Regarding `COc1cc(/C=C/C(C)=O)ccc1OCc1cn(-c2ccnc3cc(Cl)ccc23)nn1` [Compound 12], the “Solubility pH 2.0” value in “Solubility estimates” (1% DMSO) is on record as “no increase in solubility under acidic conditions”. In addition, the solubility in “Solubility estimates” (0.01M HCl, pH 2) is 3.1 to 6.3 µg/mL (≈ 7.13 to 14.5 µM); in the series “Solubility estimates” (phosphate buffer, pH 6.5), 3.1 to 6.3 µg/mL (≈ 7.13 to 14.5 µM). Besides, the Primary glucuronidation result in [2] is given as “no putative metabolites detected with molecular weights consistent with glucuronidation”.

Take `COc1cc(/C=C/C(C)=O)ccc1OCCNc1ccnc2cc(Cl)ccc12` [Compound 20, 4-{4-[2-(7-Chloro-quinolin-4-ylamino)-ethoxy]-3-methoxy-phenyl}-but-3-en-2-one]: the solubility in the series “Solubility estimates” (0.01M HCl, pH 2) is 50 to 100 µg/mL (≈ 126 to 252 µM); in “Solubility estimates” (phosphate buffer, pH 6.5), 6.3 to 12.5 µg/mL (≈ 15.9 to 31.5 µM). Besides, the “Solubility pH 6.5” value in the series “Solubility estimates” (pH 6.5 phosphate buffer, 1% DMSO) was “moderate solubility”. Also, the Primary glucuronidation entry in [2] is listed as “no major increase in the rate of degradation”. For the same molecule, in series [6], the “Microsome-Predicted Extraction ratio (EH), Human” value is given as 0.90. Further, the “Falcipain 2 (IC50)” value at Falcipain 2 was “relatively low potencies”. Moreover, the “Microsome-Predicted Extraction ratio (EH), Mouse” value in series [7] is 0.85.

For `COc1ccc(C(=O)/C=C/c2ccc(OCCNc3ccnc4cc(Cl)ccc34)c(OC)c2)c(OC)c1` [Compound 21, 3-{4-[2-(7-Chloro-quinolin-4-ylamino)-ethoxy]-3-methoxy-phenyl}-1-(2,4-dimethoxy-phenyl)-propenone], the solubility in the series “Solubility estimates” (phosphate buffer, pH 6.5) was 3.1 to 6.3 µg/mL (≈ 5.97 to 12.1 µM). Moreover, in series [2], the Primary glucuronidation result is reported as “no major increase in the rate of degradation”. Moreover, in series [6], the “Microsome-Predicted Extraction ratio (EH), Human” value is 0.85. For the same molecule, at Falcipain 2, the “Falcipain 2 (IC50)” value is “lower micromolar IC50 values”. In addition, the “Microsome-Predicted Extraction ratio (EH), Mouse” value in [7] was 0.86.

Turning to `COc1cc(/C=C/C(C)=O)ccc1OCCN1CCN(c2ccnc3cc(Cl)ccc23)CC1` [Compound 22, 4-(4-{2-[4-(7-Chloro-quinolin-4-yl)-piperazin-1-yl]-ethoxy}-3-methoxy-phenyl)-but-3-en-2-one], in “Solubility estimates” (phosphate buffer, pH 6.5), the solubility was 1.6 to 3.1 µg/mL (≈ 3.43 to 6.65 µM). In addition, the Primary glucuronidation entry in series [2] is given as “no putative metabolites detected with molecular weights consistent with glucuronidation”. Also, the “Falcipain 2 (IC50)” value at Falcipain 2 is recorded as “relatively low potencies”.

For the molecule `COc1ccc(C(=O)/C=C/c2ccc(OCCN3CCN(c4ccnc5cc(Cl)ccc45)CC3)c(OC)c2)c(OC)c1` [Compound 23, 3-(4-{2-[4-(7-Chloro-quinolin-4-yl)-piperazin-1-yl]-ethoxy}-3-methoxy-phenyl)-1-(2,4-dimethoxy-phenyl)-propenone], in series [2], the Primary glucuronidation result was “no major increase in the rate of degradation”. Besides, the “Falcipain 2 (IC50)” value at Falcipain 2 was “lower micromolar IC50 values”.

`COc1cc(/C=C/C(C)=O)cc(CN2CCN(c3ccnc4cc(Cl)ccc34)CC2)c1O` [Compound 24, 4-{3-[4-(7-Chloro-quinolin-4-yl)-piperazin-1-ylmethyl]-4-hydroxy-5-methoxyphenyl}-but-3-en-2-one]: the solubility in the series “Solubility estimates” (phosphate buffer, pH 6.5) is 1.6 to 3.1 µg/mL (≈ 3.54 to 6.86 µM). The “Microsome-Predicted Extraction ratio (EH), Human” value in [6] is given as 0.85. In addition, the “Falcipain 2 (IC50)” value at Falcipain 2 was “relatively low potencies”. Further, the “Microsome-Predicted Extraction ratio (EH), Mouse” value in series [7] is listed as 0.84.

As to `COc1ccc(C(=O)/C=C/c2cc(CN3CCN(c4ccnc5cc(Cl)ccc45)CC3)c(O)c(OC)c2)c(OC)c1` [Compound 25, 3-{3-[4-(7-Chloro-quinolin-4-yl)-piperazin-1-ylmethyl]-4-hydroxy-5-methoxyphenyl}-1-(2,4-dimethoxy-phenyl)-propenone], the “Microsome-Predicted Extraction ratio (EH), Human” value in series [6] was 0.72. Moreover, the Cytotoxicity entry in series [8] is recorded as “No cytotoxicity was observed”. For the same molecule, the “Falcipain 2 (IC50)” value on Falcipain 2 is “lower micromolar IC50 values”. Also, the “Microsome-Predicted Extraction ratio (EH), Mouse” value in [7] is recorded as 0.87.

For the molecule `CC(=O)/C=C/c1ccc(O)c(CN2CCN(c3ccnc4cc(Cl)ccc34)CC2)c1` [Compound 26, 4-{3-[4-(7-Chloro-quinolin-4-yl)-piperazin-1-ylmethyl]-4-hydroxy-phenyl}-but-3-en-2-one], in [6], the “Microsome-Predicted Extraction ratio (EH), Human” value is 0.93. The “Falcipain 2 (IC50)” value on Falcipain 2 is listed as “lower micromolar IC50 values”. Besides, the “Microsome-Predicted Extraction ratio (EH), Mouse” value in [7] is 0.84.

In the case of `COc1ccc(C(=O)/C=C/c2ccc(O)c(CN3CCN(c4ccnc5cc(Cl)ccc45)CC3)c2)c(OC)c1` [Compound 27, 3-{3-[4-(7-Chloro-quinolin-4-yl)-piperazin-1-ylmethyl]-4-hydroxy-phenyl}-1-(2,4-dimethoxy-phenyl)-propenone], the Cytotoxicity result in series [8] is “No cytotoxicity was observed”. Besides, the “Falcipain 2 (IC50)” value at Falcipain 2 is “lower micromolar IC50 values”.
